Data on 26 compounds can be found in patent US20090298894A1, “AMINO ACID COMPOUNDS” (Asahi Kasei Pharma Corporation, priority 2008, published 2009).

T1 sequence (P21453 whole entry): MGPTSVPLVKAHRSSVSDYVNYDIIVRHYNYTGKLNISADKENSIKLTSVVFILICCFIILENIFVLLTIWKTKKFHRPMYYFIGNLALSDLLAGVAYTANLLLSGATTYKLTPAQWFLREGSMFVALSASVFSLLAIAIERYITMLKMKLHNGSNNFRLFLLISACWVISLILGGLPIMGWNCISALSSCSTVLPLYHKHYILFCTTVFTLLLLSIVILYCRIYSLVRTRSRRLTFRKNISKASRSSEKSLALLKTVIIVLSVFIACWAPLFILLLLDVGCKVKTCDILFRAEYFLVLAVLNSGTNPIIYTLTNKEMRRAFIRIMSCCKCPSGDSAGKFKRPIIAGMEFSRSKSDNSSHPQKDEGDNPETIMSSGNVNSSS

The first data set concerns the target T1, human S1P1 (Homo sapiens, UniProt P21453).
T1 construct: expressed in transfected cells
Description: 35S-GTPγS binding assay using a membrane prepared from CHO cells which stably express S1P1 receptor. The class given is biochemical. The settings on record: CHO cell membrane fraction stably expressing human S1P1, read-out: EC50 (concentration of agonist required to give 50% of its own maximum increase ratio), human S1P1. On the procedure:
^35S-GTPγS Binding Assay Using a Membrane Prepared from CHO Cells Which Stably Express S1P1 Receptor
Functional activation of human S1P1 by the compounds was determined based on quantification of ^35S-GTPγS binding to G protein due to the receptor activation, by using a cell membrane fraction prepared from CHO cells in which human S1P1 are stably expressed. As for human S1P1, the above described human S1P1 was used. Membrane proteins as prepared and various concentrations of sphingosine-1-phosphate or the compounds diluted in a solvent such as DMSO were incubated in a solution comprising 20 mM Tris-Cl (pH 7.5), 100 mM NaCl, 10 mM MgCl2, […] (Upstate), 0.1% BSA (fatty acid free, Sigma) and 25 pM ^35S-GTPγS (specific activity 1250 Ci/mmol) in 96 well microtiter plates. Binding was performed by incubating them for 90 minutes at room temperature, and then terminated by harvesting the membrane proteins onto multiscreeen harvest FB plates (Millipore) using Millipore multiscreen separation system. After drying the harvest plates at least for 12 hours, 25 μl of MicroScint-O (Perkin Elmer) was added to each well and radioactivity was measured using a Top Counter.
Having the value measured for the well to which a solvent has been added as a control value, the agonist activity of the compounds was determined by comparing the increase in the well to which a test compound has been added to the control value, and therefore an increase ratio for each concentration of the compounds was obtained. EC50 values were culcurated as defined to be the concentration of agonist required to give 50% of its own maximum increase ratio.
For orientation: Binding of GTPγS marks nucleotide exchange on a G protein.
Consider `Cc1cc(-c2nc(-c3ccc4c(c3)CCC4N[C@H]3C[C@H](C(=O)O)C3)no2)ccc1-c1cc(F)ccc1C#N` (some centres unmarked) [Example 65], for which the EC50 was < 10 nM.

`Cc1cc(-c2nc(-c3ccc4c(c3)CN([C@H]3C[C@H](C(=O)O)C3)C4)no2)ccc1-c1ccccc1Cl` [Example 66]: the EC50 was < 10 nM. Same read-out and setting: the same measure for `O=C(O)[C@H]1C[C@H](N2Cc3ccc(-c4noc(-c5ccc(-c6ccccc6)c(Cl)c5)n4)cc3C2)C1` [Example 67]: < 10 nM. The same measure, in the same setting: the same measure for `O=C(O)[C@H]1C[C@H](N2Cc3ccc(-c4noc(-c5ccc(-c6ccccc6F)c(Cl)c5)n4)cc3C2)C1` [Example 68]: < 10 nM; for `Cc1cc(-c2nc(-c3cc(Cl)c4c(c3)CN([C@H]3C[C@H](C(=O)O)C3)C4)no2)ccc1-c1ccccc1` [Example 77]: < 10 nM; for `Cc1cc(-c2nc(-c3ccc4c(c3)CN([C@H]3C[C@H](C(=O)O)C3)C4)no2)ccc1-c1ccsc1` [Example 78]: < 10 nM.

As for `Cc1cc(-c2nc(-c3ccc4c(c3)CN([C@H]3C[C@H](C(=O)O)C3)C4)no2)ccc1-c1ccccc1F` [Example 84], the EC50 was < 10 nM. On the same count and under the same terms, under `Cc1cc(-c2nc(-c3ccc4c(c3)CN([C@H]3C[C@H](C(=O)O)C3)C4)no2)ccc1-c1ccccc1C(F)(F)F` [Example 85] stands < 10 nM; under `Cc1cc(-c2nc(-c3ccc4c(c3)CN([C@H]3C[C@H](C(=O)O)C3)C4)no2)ccc1-c1cscc1C` [Example 88], < 10 nM. On the same count and under the same terms, under `Cc1cc(-c2nc(-c3ccc4c(c3)CN([C@H]3C[C@H](C(=O)O)C3)C4)no2)c(F)cc1-c1ccccc1F` [Example 89] stands < 10 nM; under `Cc1cc(-c2nc(-c3ccc4c(c3)CN([C@H]3C[C@H](C(=O)O)C3)C4)no2)ccc1-c1cccc(F)c1F` [Example 90], < 10 nM. The same measure, in the same setting: under `Cc1cc(-c2nc(-c3ccc4c(c3)CN([C@H]3C[C@H](C(=O)O)C3)C4)no2)ccc1-c1cccc(C(F)(F)F)c1F` [Example 92] stands < 10 nM; under `Cc1cc(-c2nc(-c3ccc4c(c3)CN([C@H]3C[C@H](C(=O)O)C3)C4)no2)c(F)cc1-c1cccc(F)c1F` [Example 93], < 10 nM. Consider `Cc1cc(-c2nc(-c3ccc4c(c3)CN([C@H]3C[C@H](C(=O)O)C3)C4)no2)ccc1-c1cccc(F)c1C(F)(F)F` [Example 95], for which the EC50 is < 10 nM.

Turning to `Cc1cc(-c2nc(-c3ccc4c(c3)CN([C@H]3C[C@H](C(=O)O)C3)C4)no2)ccc1-c1cc(F)cc(F)c1F` [Example 100], the EC50 was < 10 nM. Consider `Cc1cc(-c2nc(-c3ccc4c(c3)CN([C@H]3C[C@H](C(=O)O)C3)C4)no2)c(F)cc1-c1cc(F)cc(F)c1F` [Example 102], for which the EC50 is < 10 nM. On the same count and under the same terms, the same measure for `Cc1cc(-c2nc(-c3ccc4c(c3)CN([C@H]3C[C@@H](C(=O)O)C3)C4)no2)ccc1-c1ccccc1` [Example 104]: < 10 nM; for `Cc1cc(-c2nc(-c3ccc4c(c3)CN([C@H]3C[C@@H](C(=O)O)C3)C4)no2)c(F)cc1-c1cc(F)cc(F)c1F` [Example 106]: < 10 nM.

The next data set has as its system peripheral lymphocytes. Description: Evaluation of peripheral blood lymphocyte reduction. The class given is in vivo. The settings on record: po, 6 h, rat, orally administered, six hours after the administration, read-out: ED50 (dosage required to reduce number of lymphocytes by 50%). How it is done:
Evaluation of Peripheral Blood Lymphocyte Reduction
The compound or a solvent is orally administered to a rat. 3, 6, 24, 48 or 72 hours after the administration of the compounds, blood is drawn from the rat tail. Hematological testis carried out for the whole blood sample. Using an automated analyzer (Sysmex 2000Xi), total number of peripheral lymphocytes is obtained. By having at least three animals per group, activity of the compound on the total number of peripheral lymphocytes was evaluated. Lymphocyte reduction caused by the compound administration was evaluated via comparison with an animal group which had received the solvent only. Specifically, average number of the lymphocytes for the solvent administered group was taken as 100%, and from average number of the lymphocytes for the compound administered group, control % value was calculated. Further, in view of the dosage of the compound and the dosage of the compound that is required to reduce number of lymphocytes by 50% six hours after the administration compared to the control % value was calculated as ED50.
Usually ED50 stands for the dose that gives a 50% effect, or the effect in half of the subjects. Regarding `Cc1cc(-c2nc(-c3ccc4c(c3)CCC4NC3CC(C(=O)O)C3)no2)ccc1-c1cccc(F)c1.Cl` (centres unmarked) [Example 4], the ED50 was < 1 mg/kg. The same measure, in the same setting: the same measure for `Cc1cc(-c2nc(-c3ccc4c(c3)CCC4NC3CC(C(=O)O)C3)no2)ccc1-c1cccc(F)c1F.Cl` (centres unmarked) [Example 28]: < 1 mg/kg. The same measure, in the same setting: the same measure for `Cc1cc(-c2nc(-c3ccc4c(c3)CCC4NC3CC(C(=O)O)C3)no2)ccc1-c1cc(F)ccc1F.Cl` (centres unmarked) [Example 29]: < 1 mg/kg; for `Cc1cc(-c2nc(-c3ccc4c(c3)CCC4NC3CC(C(=O)O)C3)no2)c(F)cc1-c1cccc(F)c1F.Cl` (centres unmarked) [Example 32]: < 1 mg/kg; for `Cc1cc(-c2nc(-c3ccc4c(c3)CCC4NC3CC(C(=O)O)C3)no2)c(F)cc1-c1cccc(C(F)(F)F)c1C(F)(F)F.Cl` (centres unmarked) [Example 48]: < 1 mg/kg.

The subject of the next data set is rat having arthritis caused by an adjuvant. In words: Animal model having arthritis caused by an adjuvant. The class given is in vivo. The conditions noted are these: female Lewis rat, oral once a day, twenty-one days after the administration. How it is done: Animal Model Having Arthritis Caused by an Adjuvant
Seven-week old female Lewis rat is used for the evaluation. After measuring the volume of the hind leg of the rat, M. tuberculosis H37 RA (manufactured by Difco, 500 μg/100 μl) which has been suspended in fluid paraffin as an adjuvant, is subcutaneously injected in the sole of rear left foot of the rat to prepare a rat having arthritis caused by an adjuvant. The compounds to be tested are suspended in 1% methyl cellulose solution, and force the animal to be orally administered with the suspension into the stomach by using a sonde, once a day for twenty-one days from the start of the adjuvant injection. Evaluation of arthritis is carried out by measuring volume of the foot of each animal by using a plethysmometer (manufactured by UGO BASILE). By comparing the value for the group administered with the compounds of the present invention with the solvent administered group, effect of the compounds is determined. Specifically, the swelling of the sole of the rear left foot of the solvent administered group is taken as 100%, and in view of the swelling of the animals of the compound administered group, control % values are calculated. […]
For the compound `Cc1cc(-c2nc(-c3ccc4c(c3)CCC4N[C@H]3C[C@H](C(=O)O)C3)no2)ccc1-c1ccccc1.Cl` (stereo partly drawn) [Example 1, 1,3-Trans-3-(5-(5-(2-methylbiphenyl-4-yl)-1,2,4-oxadiazol-3-yl)-2,3-dihydro-1H-inden-1-ylamino)cyclobutanecarboxylic acid hydrochloride salt], the “ED50 (dosage required to reduce the swelling of sole of the rear left foot by 50%)” value is on record as “less than 1 mg/kg”.

Tested on in another data set: not given
Assay: not given
The conditions noted are these: reported in Non-Patent Document 1; cited from earlier work.
`CCCCCCCCc1ccc(CCC(N)(CO)CO)cc1` [FTY720]: the “side effect after administration” value is “bradycardia is found after administration”.

Tested on in a further data set: not given
Assay: not given
The conditions noted are these: rats, intravenous administration, Non-Patent Document 2; cited from earlier work.
For the compound `CCCCCCCCCCCCC/C=C/[C@@H](O)[C@@H](N)COP(=O)(O)O` [sphingosine 1-phosphate], the “effect on heart rate” value is reported as “decreases the heart rate”.
